Data from article PMC6874179, “Development of Macrocycle Kinase Inhibitors for ALK2 Using Fibrodysplasia Ossificans Progressiva‐Derived Endothelial Cells” (JBMR Plus, 2019).

Tests used:
Experiment in all cases: Proqinase Kinase profiling
Type in all cases: biochemical
Settings in all cases: read-out: % inhibition at 100nM
[1] = biological target: T1, IKBKE (Homo sapiens, UniProt Q14164)
T1 construct: purchased DiscoverX

[2] = biological target: T2, TSSK2 (Homo sapiens, UniProt Q96PF2)
T2 construct: purchased DiscoverX

[3] = biological target: T3, PHKG2 (Homo sapiens, UniProt P15735)
T3 construct: purchased DiscoverX

[4] = biological target: T4, SGK2 (Homo sapiens, UniProt Q9HBY8)
T4 construct: purchased DiscoverX

[5] = biological target: T5, IGF1R (Homo sapiens, UniProt P08069)
T5 construct: purchased DiscoverX

[6] = biological target: T6, HIPK2 (Homo sapiens, UniProt Q9H2X6)
T6 construct: purchased DiscoverX

[7] = biological target: T7, PTK6 (Homo sapiens, UniProt Q13882)
T7 construct: purchased DiscoverX

[8] = biological target: T8, SIK2 (Homo sapiens, UniProt Q9H0K1)
T8 construct: purchased DiscoverX

[9] = biological target: T9, EGFR_L747-E749del_A750P (Homo sapiens, UniProt P00533, A750P/DEL747-749)
T9 construct: purchased DiscoverX

[10] = biological target: T10, EPHA5 (Homo sapiens, UniProt P54756)
T10 construct: purchased DiscoverX

[11] = biological target: T11, MAPK1 (Homo sapiens, UniProt P28482)
T11 construct: purchased DiscoverX

[12] = biological target: T12, KDR (Homo sapiens, UniProt P35968)
T12 construct: purchased DiscoverX

[13] = biological target: T13, MYLK2 (Homo sapiens, UniProt Q9H1R3)
T13 construct: purchased DiscoverX

[14] = biological target: T14, KIT_A829P (Homo sapiens, UniProt P10721, A829P)
T14 construct: purchased DiscoverX

[15] = biological target: T15, MAP3K3 (Homo sapiens, UniProt Q99759)
T15 construct: purchased DiscoverX

[16] = biological target: T16, DYRK1A (Homo sapiens, UniProt Q13627)
T16 construct: purchased DiscoverX

[17] = biological target: T17, KIT_V559D_V654A (Homo sapiens, UniProt P10721, V559D/V654A)
T17 construct: purchased DiscoverX

[18] = biological target: T18, FYN (Homo sapiens, UniProt P06241)
T18 construct: purchased DiscoverX

[19] = biological target: T19, GRK7 (Homo sapiens, UniProt Q8WTQ7)
T19 construct: purchased DiscoverX

[20] = biological target: T20, DYRK3 (Homo sapiens, UniProt O43781)
T20 construct: purchased DiscoverX

[21] = biological target: T21, EIF2AK2 (Homo sapiens, UniProt P19525)
T21 construct: purchased DiscoverX

[22] = biological target: T22, VRK1 (Homo sapiens, UniProt Q99986)
T22 construct: purchased DiscoverX

[23] = biological target: T23, MAPK15 (Homo sapiens, UniProt Q8TD08)
T23 construct: purchased DiscoverX

[24] = biological target: T24, EPHA7 (Homo sapiens, UniProt Q15375)
T24 construct: purchased DiscoverX

[25] = biological target: T25, CDK1_cyclinB (Homo sapiens, UniProt P06493)
T25 construct: purchased DiscoverX

[26] = biological target: T26, CSNK1G1 (Homo sapiens, UniProt Q9HCP0)
T26 construct: purchased DiscoverX

[27] = biological target: T27, TEK_R849W (Homo sapiens, UniProt Q02763, R849W)
T27 construct: purchased DiscoverX

[28] = biological target: T28, MAPK3 (Homo sapiens, UniProt P27361)
T28 construct: purchased DiscoverX

[29] = biological target: T29, TNK2 (Homo sapiens, UniProt Q07912)
T29 construct: purchased DiscoverX

[30] = biological target: T30, GRK5 (Homo sapiens, UniProt P34947)
T30 construct: purchased DiscoverX

[31] = biological target: T31, TXK (Homo sapiens, UniProt P42681)
T31 construct: purchased DiscoverX

[32] = biological target: T32, PRKD1 (Homo sapiens, UniProt Q15139)
T32 construct: purchased DiscoverX

[33] = biological target: T33, BRSK1 (Homo sapiens, UniProt Q8TDC3)
T33 construct: purchased DiscoverX

[34] = biological target: T34, MAP3K14 (Homo sapiens, UniProt Q99558)
T34 construct: purchased DiscoverX

[35] = biological target: T35, FGFR3 (Homo sapiens, UniProt P22607)
T35 construct: purchased DiscoverX

[36] = biological target: T36, RAF1 (Homo sapiens, UniProt P04049)
T36 construct: purchased DiscoverX

[37] = biological target: T37, MAP3K1 (Homo sapiens, UniProt Q13233)
T37 construct: purchased DiscoverX

[38] = biological target: T38, ABL1_M351T (Homo sapiens, UniProt P00519, M351T)
T38 construct: purchased DiscoverX

[39] = biological target: T39, MAP2K1 (Homo sapiens, UniProt Q02750)
T39 construct: purchased DiscoverX

[40] = biological target: T40, LIMK2 (Homo sapiens, UniProt P53671)
T40 construct: purchased DiscoverX

[41] = biological target: T41, NTRK3 (Homo sapiens, UniProt Q16288)
T41 construct: purchased DiscoverX

[42] = biological target: T42, ITK (Homo sapiens, UniProt Q08881)
T42 construct: purchased DiscoverX

[43] = biological target: T43, FGFR1 (Homo sapiens, UniProt P11362)
T43 construct: purchased DiscoverX

T15 sequence (Q99759 whole entry): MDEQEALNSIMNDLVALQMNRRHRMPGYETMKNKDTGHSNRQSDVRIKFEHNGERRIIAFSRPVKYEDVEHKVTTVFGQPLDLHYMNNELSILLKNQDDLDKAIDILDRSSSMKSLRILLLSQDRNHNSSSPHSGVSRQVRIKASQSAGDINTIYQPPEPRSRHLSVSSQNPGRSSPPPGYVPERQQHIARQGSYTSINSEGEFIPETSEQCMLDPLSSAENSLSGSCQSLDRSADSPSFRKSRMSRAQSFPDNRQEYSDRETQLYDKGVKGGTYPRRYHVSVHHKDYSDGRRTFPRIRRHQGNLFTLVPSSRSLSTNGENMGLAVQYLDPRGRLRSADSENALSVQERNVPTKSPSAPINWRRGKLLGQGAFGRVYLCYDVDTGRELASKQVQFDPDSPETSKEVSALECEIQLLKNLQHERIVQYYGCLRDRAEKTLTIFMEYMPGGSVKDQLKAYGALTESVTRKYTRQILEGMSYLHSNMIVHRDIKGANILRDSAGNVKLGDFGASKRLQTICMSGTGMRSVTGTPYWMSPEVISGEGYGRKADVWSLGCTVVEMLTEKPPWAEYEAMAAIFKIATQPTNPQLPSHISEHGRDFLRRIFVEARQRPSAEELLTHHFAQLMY
T37 sequence (Q13233 whole entry): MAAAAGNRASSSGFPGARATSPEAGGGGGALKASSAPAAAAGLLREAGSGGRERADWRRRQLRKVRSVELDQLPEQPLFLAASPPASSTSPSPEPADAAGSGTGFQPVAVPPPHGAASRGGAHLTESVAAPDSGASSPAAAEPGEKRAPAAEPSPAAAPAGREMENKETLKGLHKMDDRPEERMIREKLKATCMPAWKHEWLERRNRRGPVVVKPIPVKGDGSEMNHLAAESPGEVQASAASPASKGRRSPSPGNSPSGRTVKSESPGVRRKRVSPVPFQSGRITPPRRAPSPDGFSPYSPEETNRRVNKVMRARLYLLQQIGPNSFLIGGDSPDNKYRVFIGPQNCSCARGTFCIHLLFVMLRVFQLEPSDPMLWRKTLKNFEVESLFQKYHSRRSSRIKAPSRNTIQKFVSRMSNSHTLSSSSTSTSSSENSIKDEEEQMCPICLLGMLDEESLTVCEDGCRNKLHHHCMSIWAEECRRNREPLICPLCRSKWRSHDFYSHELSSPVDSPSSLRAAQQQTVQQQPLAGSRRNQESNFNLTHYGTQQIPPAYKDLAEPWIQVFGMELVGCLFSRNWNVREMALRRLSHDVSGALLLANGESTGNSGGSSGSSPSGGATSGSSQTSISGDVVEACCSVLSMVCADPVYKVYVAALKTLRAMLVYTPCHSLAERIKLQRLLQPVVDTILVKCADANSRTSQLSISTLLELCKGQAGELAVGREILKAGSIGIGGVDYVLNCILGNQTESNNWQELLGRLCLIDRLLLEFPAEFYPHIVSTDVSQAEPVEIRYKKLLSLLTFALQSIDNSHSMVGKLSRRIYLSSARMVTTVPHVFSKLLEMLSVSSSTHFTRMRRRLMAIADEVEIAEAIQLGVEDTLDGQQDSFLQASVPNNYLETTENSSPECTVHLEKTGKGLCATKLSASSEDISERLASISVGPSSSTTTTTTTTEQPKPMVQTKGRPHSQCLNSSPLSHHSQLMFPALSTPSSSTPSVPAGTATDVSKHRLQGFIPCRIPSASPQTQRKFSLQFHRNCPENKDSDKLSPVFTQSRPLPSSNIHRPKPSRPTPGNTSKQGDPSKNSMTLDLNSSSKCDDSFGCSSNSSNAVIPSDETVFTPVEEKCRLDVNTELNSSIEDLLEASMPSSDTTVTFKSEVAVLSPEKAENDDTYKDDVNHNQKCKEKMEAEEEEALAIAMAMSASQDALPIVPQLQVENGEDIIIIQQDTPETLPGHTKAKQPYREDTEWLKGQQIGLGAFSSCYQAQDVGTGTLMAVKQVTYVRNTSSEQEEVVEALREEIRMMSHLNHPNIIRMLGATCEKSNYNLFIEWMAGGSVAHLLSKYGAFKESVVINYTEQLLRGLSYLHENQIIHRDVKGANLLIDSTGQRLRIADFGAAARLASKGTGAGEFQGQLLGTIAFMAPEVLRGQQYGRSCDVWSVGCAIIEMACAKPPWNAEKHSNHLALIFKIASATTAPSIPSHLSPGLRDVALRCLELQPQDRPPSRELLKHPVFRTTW
T27 sequence (Q02763 23-1124 R849W): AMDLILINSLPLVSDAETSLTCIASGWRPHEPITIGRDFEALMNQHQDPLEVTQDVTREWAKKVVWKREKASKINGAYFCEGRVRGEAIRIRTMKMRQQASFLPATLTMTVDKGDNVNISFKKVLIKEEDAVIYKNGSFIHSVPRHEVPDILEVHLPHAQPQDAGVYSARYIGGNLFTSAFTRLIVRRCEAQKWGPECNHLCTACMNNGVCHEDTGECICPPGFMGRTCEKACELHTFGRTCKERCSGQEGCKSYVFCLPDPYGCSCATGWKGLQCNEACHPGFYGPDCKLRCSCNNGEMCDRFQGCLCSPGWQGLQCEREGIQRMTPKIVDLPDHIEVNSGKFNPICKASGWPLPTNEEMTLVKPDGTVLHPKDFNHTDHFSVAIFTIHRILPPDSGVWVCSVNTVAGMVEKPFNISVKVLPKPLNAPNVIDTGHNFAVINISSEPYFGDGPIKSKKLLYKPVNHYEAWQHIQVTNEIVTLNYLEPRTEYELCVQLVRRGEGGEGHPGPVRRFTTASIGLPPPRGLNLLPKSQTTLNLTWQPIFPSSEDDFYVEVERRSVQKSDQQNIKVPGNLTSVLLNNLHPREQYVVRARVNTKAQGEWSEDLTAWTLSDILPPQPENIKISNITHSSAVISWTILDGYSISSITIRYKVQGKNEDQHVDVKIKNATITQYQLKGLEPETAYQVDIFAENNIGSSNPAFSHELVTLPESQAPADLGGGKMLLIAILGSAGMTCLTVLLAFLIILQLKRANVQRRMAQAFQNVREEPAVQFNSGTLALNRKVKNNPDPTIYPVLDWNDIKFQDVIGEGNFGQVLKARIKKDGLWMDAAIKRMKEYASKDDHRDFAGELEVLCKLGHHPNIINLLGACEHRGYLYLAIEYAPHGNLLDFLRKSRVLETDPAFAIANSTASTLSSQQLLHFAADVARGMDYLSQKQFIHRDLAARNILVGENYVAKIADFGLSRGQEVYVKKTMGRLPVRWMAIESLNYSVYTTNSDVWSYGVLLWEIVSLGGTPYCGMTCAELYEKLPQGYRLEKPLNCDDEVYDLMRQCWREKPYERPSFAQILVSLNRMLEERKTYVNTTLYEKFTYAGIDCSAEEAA
T33 sequence (Q8TDC3 whole entry): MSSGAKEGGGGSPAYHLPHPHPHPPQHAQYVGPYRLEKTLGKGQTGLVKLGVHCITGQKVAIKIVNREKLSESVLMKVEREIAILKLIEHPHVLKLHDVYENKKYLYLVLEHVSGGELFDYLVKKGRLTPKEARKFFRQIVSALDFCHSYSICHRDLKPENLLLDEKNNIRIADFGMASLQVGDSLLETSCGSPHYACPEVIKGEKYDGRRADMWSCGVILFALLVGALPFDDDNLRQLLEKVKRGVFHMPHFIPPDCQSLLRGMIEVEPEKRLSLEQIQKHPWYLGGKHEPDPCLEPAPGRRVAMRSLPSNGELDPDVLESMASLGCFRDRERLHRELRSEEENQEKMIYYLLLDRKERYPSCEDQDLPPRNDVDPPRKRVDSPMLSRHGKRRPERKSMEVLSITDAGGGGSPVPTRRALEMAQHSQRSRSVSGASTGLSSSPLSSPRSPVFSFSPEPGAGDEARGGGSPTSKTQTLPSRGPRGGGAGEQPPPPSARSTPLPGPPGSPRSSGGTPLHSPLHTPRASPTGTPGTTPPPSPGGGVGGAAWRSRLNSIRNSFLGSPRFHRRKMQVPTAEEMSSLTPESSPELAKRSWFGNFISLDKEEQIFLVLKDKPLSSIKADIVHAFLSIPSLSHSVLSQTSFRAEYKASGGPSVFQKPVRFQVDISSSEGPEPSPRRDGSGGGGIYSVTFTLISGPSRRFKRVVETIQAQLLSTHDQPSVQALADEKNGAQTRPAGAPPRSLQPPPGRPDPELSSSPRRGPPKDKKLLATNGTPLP
T34 sequence (Q99558 whole entry): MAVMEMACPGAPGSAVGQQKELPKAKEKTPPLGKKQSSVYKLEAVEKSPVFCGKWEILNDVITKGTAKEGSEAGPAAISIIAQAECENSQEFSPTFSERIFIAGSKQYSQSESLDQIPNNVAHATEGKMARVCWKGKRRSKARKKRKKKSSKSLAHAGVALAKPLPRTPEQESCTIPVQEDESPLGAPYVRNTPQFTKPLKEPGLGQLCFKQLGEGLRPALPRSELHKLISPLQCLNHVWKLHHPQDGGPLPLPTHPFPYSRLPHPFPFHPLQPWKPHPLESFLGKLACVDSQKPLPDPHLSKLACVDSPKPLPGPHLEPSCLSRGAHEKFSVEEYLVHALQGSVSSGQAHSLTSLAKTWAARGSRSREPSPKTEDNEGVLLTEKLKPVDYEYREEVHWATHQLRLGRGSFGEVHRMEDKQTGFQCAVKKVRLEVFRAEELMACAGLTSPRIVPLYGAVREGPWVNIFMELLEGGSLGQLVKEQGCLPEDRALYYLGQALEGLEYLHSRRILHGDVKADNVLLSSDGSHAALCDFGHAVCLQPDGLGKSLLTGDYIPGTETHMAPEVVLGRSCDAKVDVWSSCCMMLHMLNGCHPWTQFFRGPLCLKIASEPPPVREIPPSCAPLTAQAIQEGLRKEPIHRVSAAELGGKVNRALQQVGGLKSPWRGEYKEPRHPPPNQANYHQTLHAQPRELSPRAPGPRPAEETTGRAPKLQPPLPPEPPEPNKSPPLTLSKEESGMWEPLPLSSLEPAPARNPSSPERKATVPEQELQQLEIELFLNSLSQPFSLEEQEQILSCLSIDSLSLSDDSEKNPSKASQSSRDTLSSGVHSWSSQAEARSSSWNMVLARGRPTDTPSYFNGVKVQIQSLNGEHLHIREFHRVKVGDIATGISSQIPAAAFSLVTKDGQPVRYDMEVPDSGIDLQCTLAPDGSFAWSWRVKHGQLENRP

SMILES: Clc1cc2cc(c1)-c1cnn3ccc(nc13)NCCOCCO2 [OD36]
- inhibition at 0.1 µM [1]: 6%
- inhibition at 0.1 µM [2]: -6%
- inhibition at 0.1 µM [3]: 1%
- inhibition at 0.1 µM [4]: 6%
- inhibition at 0.1 µM [5]: 3%
- inhibition at 0.1 µM [6]: 16%
- inhibition at 0.1 µM [7]: 46%
- inhibition at 0.1 µM [8]: 94%
- inhibition at 0.1 µM [9]: 2%
- inhibition at 0.1 µM [10]: 10%
- inhibition at 0.1 µM [11]: 10%
- inhibition at 0.1 µM [12]: 32%
- inhibition at 0.1 µM [13]: 23%
- inhibition at 0.1 µM [14]: 17%
- inhibition at 0.1 µM [15]: 1%
- inhibition at 0.1 µM [16]: 7%
- inhibition at 0.1 µM [17]: -2%
- inhibition at 0.1 µM [18]: 59%
- inhibition at 0.1 µM [19]: 6%
- inhibition at 0.1 µM [20]: 0%
- inhibition at 0.1 µM [21]: 9%
- inhibition at 0.1 µM [22]: -4%
- inhibition at 0.1 µM [23]: 17%
- inhibition at 0.1 µM [24]: 23%
- inhibition at 0.1 µM [25]: 9%
- inhibition at 0.1 µM [26]: 1%
- inhibition at 0.1 µM [27]: 8%
- inhibition at 0.1 µM [28]: 12%
- inhibition at 0.1 µM [29]: 17%
- inhibition at 0.1 µM [30]: 1%
- inhibition at 0.1 µM [31]: 37%
- inhibition at 0.1 µM [32]: -11%
- inhibition at 0.1 µM [33]: 8%
- inhibition at 0.1 µM [34]: 10%
- inhibition at 0.1 µM [35]: 7%
- inhibition at 0.1 µM [36]: 2%
- inhibition at 0.1 µM [37]: 8%
- inhibition at 0.1 µM [38]: 16%
- inhibition at 0.1 µM [39]: 6%
- inhibition at 0.1 µM [40]: 6%
- inhibition at 0.1 µM [41]: 17%
- inhibition at 0.1 µM [42]: -6%
- inhibition at 0.1 µM [43]: 14%

SMILES: Cc1cc2cc(c1)-c1cnn3ccc(nc13)NCCNC(=O)CCN(C)C2 [OD52]
- inhibition at 0.1 µM [1]: -21%
- inhibition at 0.1 µM [2]: 11%
- inhibition at 0.1 µM [3]: -10%
- inhibition at 0.1 µM [4]: -1%
- inhibition at 0.1 µM [5]: -25%
- inhibition at 0.1 µM [6]: -2%
- inhibition at 0.1 µM [7]: 0%
- inhibition at 0.1 µM [8]: -1%
- inhibition at 0.1 µM [9]: -9%
- inhibition at 0.1 µM [10]: -1%
- inhibition at 0.1 µM [11]: -1%
- inhibition at 0.1 µM [12]: -14%
- inhibition at 0.1 µM [13]: -4%
- inhibition at 0.1 µM [14]: -10%
- inhibition at 0.1 µM [15]: 13%
- inhibition at 0.1 µM [16]: -4%
- inhibition at 0.1 µM [17]: -12%
- inhibition at 0.1 µM [18]: 6%
- inhibition at 0.1 µM [19]: 12%
- inhibition at 0.1 µM [20]: -5%
- inhibition at 0.1 µM [21]: -1%
- inhibition at 0.1 µM [22]: -15%
- inhibition at 0.1 µM [23]: -3%
- inhibition at 0.1 µM [24]: -18%
- inhibition at 0.1 µM [25]: 6%
- inhibition at 0.1 µM [26]: 16%
- inhibition at 0.1 µM [27]: -16%
- inhibition at 0.1 µM [28]: 1%
- inhibition at 0.1 µM [29]: -20%
- inhibition at 0.1 µM [30]: 2%
- inhibition at 0.1 µM [31]: 25%
- inhibition at 0.1 µM [32]: -22%
- inhibition at 0.1 µM [33]: -1%
- inhibition at 0.1 µM [34]: -23%
- inhibition at 0.1 µM [35]: -9%
- inhibition at 0.1 µM [36]: -1%
- inhibition at 0.1 µM [37]: -14%
- inhibition at 0.1 µM [38]: -7%
- inhibition at 0.1 µM [39]: 10%
- inhibition at 0.1 µM [40]: 2%
- inhibition at 0.1 µM [41]: 24%
- inhibition at 0.1 µM [42]: 3%
- inhibition at 0.1 µM [43]: 5%
